We go through four compounds from US6573059B1, “Use of the regulatory subunit of the camp dependent protein kinase (PKA) from dictyostelium for camp measurements” (RMF Dictagene S.A., priority 2000, dated 2003).

Where “and” joins values, the source holds several entries; their conditions need not be identical. Equal values may be shown once. Read-outs that look alike come from different tables or passages of the source.

For test [1], the target named is T1, R26-GFP (truncated R subunit of cAMP dependent protein kinase (PKA), cAMP binding site A, fused to w7 GFP) (Dictyostelium discoideum, UniProt P05987).
T1 sequence (P05987 1-170): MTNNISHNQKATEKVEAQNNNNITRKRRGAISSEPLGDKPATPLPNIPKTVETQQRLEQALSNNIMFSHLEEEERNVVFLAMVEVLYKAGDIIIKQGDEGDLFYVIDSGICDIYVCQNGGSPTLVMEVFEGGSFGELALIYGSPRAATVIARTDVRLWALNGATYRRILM
Kind of test: FRET titration and competition for cyclic nucleotide binding to purified R26-GFP. The protocol:
Fluorescently labelled cGMP (8-{{2-{(Fluoresceinylthioureido)amino}ethyl}thio} guanosine-3′, 5′-cyclic, Biolog) was added to purified R26-GFP and fluorescence emission recorded while exciting at 433 nm.
In a further experiment, unlabelled cAMP was added in a 5 fold excess over 8-fluo-cGMP.
The concentration of labelled 8-fluo-cGMP was varied while recording fluorescence changes (FIG. 3, inset).
In order to measure the real KD for cAMP, a competition experiment was performed by varying stepwise 8-fluo-cGMP concentration For each 8-fluo-cGMP concentration, increasing concentrations of unlabelled cAMP was added, allowing to calculate the apparent KD for cAMP in each Case (FIG. 4).
For FRET measurements, R-26-GFP was diluted to about 0.1 μM. Excitation was performed at 433 nm, while emission was recorded over a range from 450 to 550 nm in a PTI C60 spectrofluorimeter (Photon Technology International).
Different concentrations of 8-Fluo-cGMP (8-{{2-{(Fluoresecinylthioureido)amino}ethyl}thio} guanosine 3′, 5′-cyclic monophosphate, Biolog) were added as indicated (5 fold excess in FIG. 2, open squares) and emission spectra were recorded again. […] In competition experiments, unlabelled cAMP was added at the indicated concentrations (FIG. 3, 100 μM).

Test [2] addresses regulatory subunit of the cAMP dependent protein kinase (PKA) from Dictyostelium (Dictyostelium discoideum, UniProt P05987). To be noted: read-out: KD for cAMP; Dictyostelium R subunit, background section; cited from earlier work.
Test [3] has as its target mammalian enzymes (PKA regulatory subunit). To be noted: read-out: KD for cAMP, background section; cited from earlier work.
For test [4], the system named is double GFP-R (R subunit with w7 and S65T GFPs flanking cAMP binding site A). The note with it: 500 μM cAMP, emission spectrum, excitation 434 nm.
Description: The spectral properties of the double GFP-R were determined using a spectrofluorimeter PTI C60 with photomultiplicator. […] The shoulder corresponds to the emission of the w7, whereas the major peak represents S65T emission.
A conformational change could also result simply from the binding of cAMP. The double GFP-R was incubated with increasing concentrations of cAMP.
Emission spectra from 450 to 550 nm were recorded using a fixed excitation at 434 nm with a bandwidth of 8 nm and an integration time between 0.2 and 1 sec (FIG. 6).
In a second experiment, partially purified double GFP-R was incubated in the presence of increasing concentration of cAMP (FIG. 6B).

Chain of regulatory subunit of the cAMP dependent protein kinase (PKA) from Dictyostelium (P05987 whole entry): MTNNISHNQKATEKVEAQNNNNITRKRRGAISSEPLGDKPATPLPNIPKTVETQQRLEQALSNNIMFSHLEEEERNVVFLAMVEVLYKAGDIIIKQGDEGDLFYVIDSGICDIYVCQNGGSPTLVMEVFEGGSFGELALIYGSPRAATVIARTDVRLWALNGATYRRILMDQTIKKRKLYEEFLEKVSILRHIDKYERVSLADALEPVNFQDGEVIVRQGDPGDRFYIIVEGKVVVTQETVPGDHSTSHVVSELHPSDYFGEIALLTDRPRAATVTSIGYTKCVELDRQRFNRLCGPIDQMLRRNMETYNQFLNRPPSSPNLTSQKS

`Nc1ncnc2c1nc(SCCNC(=S)Nc1ccc3c(c1)C(=O)OC31c3ccc(O)cc3Oc3cc(O)ccc31)n2[C@@H]1O[C@@H]2COP(=O)(O)O[C@H]2[C@H]1O` [8-fluo-cAMP, 8-{{2-{(Fluoresceinylthioureido)amino}ethyl}thio}adenosine-3′,5′-cyclic monophosphate] displayed a Kd in test [1] of around 4.5 nM.

The compound `Nc1nc2c(nc(SCCNC(=S)Nc3ccc4c(c3)C(=O)OC43c4ccc(O)cc4Oc4cc(O)ccc43)n2[C@@H]2O[C@@H]3COP(=O)(O)O[C@H]3[C@H]2O)c(=O)[nH]1` [8-fluo-cGMP, 8-{{2-{(Fluoresecinylthioureido)amino}ethyl}thio} guanosine 3′, 5′-cyclic monophosphate] yielded a Kd in test [1] of around 80 nM.

In the case of `Nc1ncnc2c1ncn2[C@@H]1O[C@@H]2COP(=O)(O)O[C@H]2[C@H]1O` [cAMP], the Kd was 20 nM and ~20 nM in test [1] (true KD for cAMP, competition of unlabelled cAMP with 8-fluo-cGMP, apparent KDs extrapolated to 0); around 20 nM in test [2]; 10 to 30 nM in test [3]. In test [4], the “amplitude change compared to double GFP/R alone” value is “about 10%”.

Consider `Nc1nc2c(ncn2[C@@H]2O[C@@H]3COP(=O)(O)O[C@H]3[C@H]2O)c(=O)[nH]1` [cGMP], for which the Kd in test [1] (reverse competition experiment, read-out: KD for cGMP) was around 1850 nM.
